Data set [1] has as its system female patients with documented history of stress incontinence. Description: Supine and standing blood pressure and pulse rate in the same cross-over study. It counts as in vivo. The settings on record: single topical dose, gel 0.5 ml, 20% w/w; up to 5 hours post dosing. On the procedure: (§1) The invention has been evaluated in a double-blind, randomised, 2-way cross-over study in female patients with documented history of stress incontinence. Each patient was exposed to both placebo and active drug over the course of the study.
(§2) Each patient received either a single dose of topical phenylephrine gel (20% w/w in a volume of 0.5 ml) or placebo according to the randomisation schedule. The gel was applied to the peri-urethral area; in, onto or around the area of the vagina and/or vaginal mucosa, in close proximity to the urethra. For up to 5 hours post dosing, urethral pressure was measured using the standard Lectromed/Galetec MPR/2 ambulatory measurement system. Supine and standing blood pressure and pulse rate was likewise measured using standard methodology via a Dinamap semi-automatic sphygmomanometer.

For data set [2] the following is noted: literature, cited from earlier work.
Data set [3] has as its system female patients with documented history of stress incontinence. Description: Urethral pressure after topical gel, double-blind randomised 2-way cross-over study. It counts as in vivo. The settings on record: single topical dose, gel 0.5 ml, 20% w/w, applied to peri-urethral area; up to 5 hours post dosing; in contrast to placebo; two typical patients (FIGS. 1 and 2). On the procedure:
as §1, §2

SMILES strings stand for the structures.

Consider one compound from patent US20100239670A1, “Topical Composition Method for Treating Urinary Stress Incontinence” (Plethora Solutions Ltd., priority 2000, published 2010).

As for `CNC[C@H](O)c1cccc(O)c1` [phenylephrine], in data set [1], the “diastolic or systolic blood pressure” value is recorded as “no clinically significant changes” and the pulse rate entry was “no clinically significant changes”. For the same compound, the blood pressure entry in data set [2] (not topical) was “substantial elevations”. In addition, in data set [2], the duration of action result was “short”. Moreover, in data set [2] (oral), the oral bioavailability result is reported as “low”. Further, the intra-urethral pressure result in data set [3] was “marked and sustained increases”.
